This assay concerns L1210 leukemia ip in BDF1 mice, survival T/C. Briefly: NCI In Vivo Anticancer Drug Screen. Data for tumor model L1210 Leukemia (intraperitoneal) in B6D2F1 (BDF1) mice. To be noted: endpoint: mean survival time, higher = longer survival. The method, boiled down: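 Read-out is survival time, reported as the treated-group measurement over the vehicle-control measurement.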

Several values for one entry are separate records, joined by “and”; a condition that tells them apart may be missing. Equal values may be shown once. Inconclusive results and toxic doses are left out.

Experimental findings from PubChem BioAssay AID248 (DTP/NCI, 2004) are described below.

For `O=C(Nc1ccc(C2=NCCN2)cc1)c1cccc(C(=O)Nc2ccc(C3=NCCN3)cc2)c1`, the T/C reads like this: (dose: 1.0 mg/kg/injection, schedule: Q#A X Z (ip), vehicle: methylcellulose (MC)) 114 % of control; (dose: 1.4 mg/kg/injection, schedule: Q01DX Z (ip), vehicle: methylcellulose (MC)) 104 % of control; (dose: 1.88 mg/kg/injection, schedule: Q01DX Z (ip), vehicle: saline) 113 % of control; (dose: 2.0 mg/kg/injection, schedule: Q01DX Z (ip), vehicle: methylcellulose (MC)) 117 % of control; (dose: 2.5 mg/kg/injection, schedule: Q01DX Z (iv), vehicle: other) 94 % of control and 100 % of control; (dose: 4.0 mg/kg/injection, schedule: Q#A X Z (ip), vehicle: methylcellulose (MC)) 158 % of control. Moreover, the T/C is 94 % of control (dose: 5.0 mg/kg/injection, schedule: Q01DX Z (iv), vehicle: other); 109 % of control (dose: 6.0 mg/kg/injection, schedule: Q03DX Z (ip), vehicle: methylcellulose (MC)); 236 % of control (dose: 6.6 mg/kg/injection, schedule: Q01DX015 (ip), vehicle: carboxymethylcellulose (CMC)); 171 % of control (dose: 7.5 mg/kg/injection, schedule: Q01DX009 (ip), vehicle: saline); 168 % of control (dose: 7.5 mg/kg/injection, schedule: Q01DX Z (ip), vehicle: methylcellulose (MC)); 97 % of control (dose: 8.0 mg/kg/injection, schedule: Q01DX004 (im), vehicle: olive oil, sesame oil, peanut oil). In addition, the T/C is 164 % of control (dose: 8.0 mg/kg/injection, schedule: Q01DX Z (ip), vehicle: methylcellulose (MC)); 273 % of control (dose: 8.0 mg/kg/injection, schedule: Q#A X Z (ip), vehicle: methylcellulose (MC)); 261 % of control (dose: 9.9 mg/kg/injection, schedule: Q01DX015 (ip), vehicle: carboxymethylcellulose (CMC)); 97 % of control and 100 % of control (dose: 10.0 mg/kg/injection, schedule: Q01DX Z (iv), vehicle: other); 173 % of control and 206 % of control (dose: 15.0 mg/kg/injection, schedule: Q01DX009 (ip), vehicle: saline); 309 % of control (dose: 15.0 mg/kg/injection, schedule: Q01DX015 (ip), vehicle: carboxymethylcellulose (CMC)). Further, the T/C is 212 % of control (dose: 15.0 mg/kg/injection, schedule: Q01DX Z (ip), vehicle: carboxymethylcellulose (CMC)); 255 % of control and 369 % of control (dose: 15.0 mg/kg/injection, schedule: Q01DX Z (ip), vehicle: methylcellulose (MC)); 214 % of control and 264 % of control (dose: 15.0 mg/kg/injection, schedule: Q01DX Z (ip), vehicle: saline); 100 % of control (dose: 16.0 mg/kg/injection, schedule: Q01DX004 (im), vehicle: olive oil, sesame oil, peanut oil); 169 % of control (dose: 16.0 mg/kg/injection, schedule: Q01DX010 (ip), vehicle: saline); 331 % of control (dose: 16.0 mg/kg/injection, schedule: Q01DX Z (ip), vehicle: methylcellulose (MC)). For the same compound, the T/C was 350 % of control (dose: 16.0 mg/kg/injection, schedule: Q#A X Z (ip), vehicle: methylcellulose (MC)); 341 % of control (dose: 22.5 mg/kg/injection, schedule: Q01DX015 (ip), vehicle: carboxymethylcellulose (CMC)); 167 % of control (dose: 24.0 mg/kg/injection, schedule: Q03DX Z (ip), vehicle: methylcellulose (MC)); 184 % of control and 240 % of control (dose: 30.0 mg/kg/injection, schedule: Q01DX009 (ip), vehicle: saline); 367 % of control (dose: 30.0 mg/kg/injection, schedule: Q01DX Z (ip), vehicle: carboxymethylcellulose (CMC)); 119 % of control and 329 % of control (dose: 30.0 mg/kg/injection, schedule: Q01DX Z (ip), vehicle: methylcellulose (MC)). Also, the T/C reads like this: (dose: 30.0 mg/kg/injection, schedule: Q01DX Z (ip), vehicle: saline) 329 % of control; (dose: 32.0 mg/kg/injection, schedule: Q01DX004 (im), vehicle: olive oil, sesame oil, peanut oil) 97 % of control; (dose: 32.0 mg/kg/injection, schedule: Q01DX010 (ip), vehicle: saline) 241 % of control; (dose: 32.0 mg/kg/injection, schedule: Q01DX Z (ip), vehicle: methylcellulose (MC)) 347 % of control; (dose: 32.0 mg/kg/injection, schedule: Q01DX Z (sc), vehicle: methylcellulose (MC)) 205 % of control; (dose: 32.0 mg/kg/injection, schedule: Q#A X Z (ip), vehicle: methylcellulose (MC)) 193 % of control. Further, the T/C was 316 % of control (dose: 33.75 mg/kg/injection, schedule: Q01DX015 (ip), vehicle: carboxymethylcellulose (CMC)); 267 % of control (dose: 48.0 mg/kg/injection, schedule: Q03DX Z (ip), vehicle: methylcellulose (MC)); 166 % of control (dose: 56.0 mg/kg/injection, schedule: Q07DX Z (ip), vehicle: methylcellulose (MC)); 194 % of control and 228 % of control (dose: 60.0 mg/kg/injection, schedule: Q01DX009 (ip), vehicle: saline); 255 % of control (dose: 60.0 mg/kg/injection, schedule: Q01DX Z (ip), vehicle: carboxymethylcellulose (CMC)); 106 % of control (dose: 60.0 mg/kg/injection, schedule: Q01DX Z (ip), vehicle: methylcellulose (MC)). The T/C runs as follows: (dose: 60.0 mg/kg/injection, schedule: Q01DX Z (ip), vehicle: saline) 280 % of control; (dose: 60.0 mg/kg/injection, schedule: Q01DX Z (oral), vehicle: methylcellulose (MC)) 114 % of control; (dose: 64.0 mg/kg/injection, schedule: Q01DX004 (im), vehicle: olive oil, sesame oil, peanut oil) 114 % of control; (dose: 64.0 mg/kg/injection, schedule: Q01DX010 (ip), vehicle: saline) 276 % of control; (dose: 64.0 mg/kg/injection, schedule: Q01DX Z (sc), vehicle: methylcellulose (MC)) 317 % of control; (dose: 96.0 mg/kg/injection, schedule: Q03DX Z (ip), vehicle: methylcellulose (MC)) 352 % of control. Besides, the T/C (dose: 100.0 mg/kg/injection, schedule: Q01DX001 (ip), vehicle: water) was 156 % of control; the T/C (dose: 112.0 mg/kg/injection, schedule: Q07DX Z (ip), vehicle: methylcellulose (MC)) is 243 % of control; the T/C (dose: 120.0 mg/kg/injection, schedule: Q01DX009 (ip), vehicle: saline) was 334 % of control; the T/C (dose: 120.0 mg/kg/injection, schedule: Q01DX Z (ip), vehicle: methylcellulose (MC)) was 89 % of control; the T/C (dose: 120.0 mg/kg/injection, schedule: Q01DX Z (ip), vehicle: saline) is 211 % of control; the T/C (dose: 120.0 mg/kg/injection, schedule: Q01DX Z (oral), vehicle: methylcellulose (MC)) is 91 % of control. The T/C is 338 % of control (dose: 128.0 mg/kg/injection, schedule: Q01DX Z (sc), vehicle: methylcellulose (MC)); 189 % of control (dose: 192.0 mg/kg/injection, schedule: Q03DX Z (ip), vehicle: methylcellulose (MC)); 194 % of control (dose: 200.0 mg/kg/injection, schedule: Q01DX001 (ip), vehicle: water); 97 % of control (dose: 240.0 mg/kg/injection, schedule: Q01DX Z (oral), vehicle: methylcellulose (MC)); 341 % of control (dose: 256.0 mg/kg/injection, schedule: Q01DX Z (sc), vehicle: methylcellulose (MC)); 247 % of control (dose: 300.0 mg/kg/injection, schedule: Q01DX001 (ip), vehicle: water). Further, the T/C (dose: 480.0 mg/kg/injection, schedule: Q01DX Z (oral), vehicle: methylcellulose (MC)) was 89 % of control.
Consider `CCOP(=O)(CC)C(Cl)(Cl)Cl` (configuration not stated), for which the T/C reads like this: (dose: 100.0 mg/kg/injection, schedule: Q04DX002 (ip), vehicle: saline with Tween-80) 93 % of control; (dose: 200.0 mg/kg/injection, schedule: Q04DX002 (ip), vehicle: saline with Tween-80) 90 % of control; (dose: 400.0 mg/kg/injection, schedule: Q04DX002 (ip), vehicle: saline with Tween-80) 93 % of control.
As for `CCCCCCCCSCCC(=O)O`, the T/C is 97 % of control (dose: 100.0 mg/kg/injection, schedule: Q01DX009 (ip), vehicle: saline with Tween-80); 97 % of control (dose: 100.0 mg/kg/injection, schedule: Q04DX003 (ip), vehicle: saline with Tween-80); 88 % of control (dose: 200.0 mg/kg/injection, schedule: Q01DX009 (ip), vehicle: saline with Tween-80); 92 % of control (dose: 200.0 mg/kg/injection, schedule: Q04DX003 (ip), vehicle: saline with Tween-80); 94 % of control (dose: 400.0 mg/kg/injection, schedule: Q04DX003 (ip), vehicle: saline with Tween-80).
With `Nc1nc(N)c(-c2ccc(Cl)cc2)c(CN2C(=O)c3ccccc3C2=O)n1`, the T/C by setting is: (dose: 75.0 mg/kg/injection, schedule: Q01DX001 (ip), vehicle: Klucel (hydroxypropylcellulose) (HPC)) 97 % of control; (dose: 150.0 mg/kg/injection, schedule: Q01DX001 (ip), vehicle: Klucel (hydroxypropylcellulose) (HPC)) 92 % of control; (dose: 300.0 mg/kg/injection, schedule: Q01DX001 (ip), vehicle: Klucel (hydroxypropylcellulose) (HPC)) 92 % of control.
